Data: PubChem BioAssay AID248 (DTP/NCI, 2004)
“And” between values parts separate entries of the source, which are not always exact repeats. Equal values may be shown once. Inconclusive results and toxic doses are left out.

System: L1210 leukemia ip in BDF1 mice, survival T/C
Assay: NCI In Vivo Anticancer Drug Screen. Data for tumor model L1210 Leukemia (intraperitoneal) in B6D2F1 (BDF1) mice
Settings: endpoint: mean survival time, higher = longer survival
Summary of the method: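 Tumor was transplanted into mice, which were then dosed with test compound or vehicle alone. Survival was recorded for each group, and the treated figure was expressed relative to the control figure.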

[1] = dose: 100.0 mg/kg/injection, schedule: Q04DX003 (ip), vehicle: saline
[2] = dose: 200.0 mg/kg/injection, schedule: Q04DX003 (ip), vehicle: saline

OCCOCCN1CCN(CCCN2c3ccccc3Sc3ccc(C(F)(F)F)cc32)CC1
T/C (dose: 1.6 mg/kg/injection, schedule: Q01DX009 (ip), vehicle: saline): 104 % of control
T/C (dose: 6.25 mg/kg/injection, schedule: Q01DX009 (ip), vehicle: saline): 117 % of control
T/C (dose: 9.5 mg/kg/injection, schedule: Q01DX001 (ip), vehicle: saline): 100 % of control
T/C (dose: 12.5 mg/kg/injection, schedule: Q01DX009 (ip), vehicle: saline): 93 % of control
T/C (dose: 12.5 mg/kg/injection, schedule: Q04DX003 (ip), vehicle: saline): 114 % of control and 124 % of control
T/C (dose: 18.7 mg/kg/injection, schedule: Q04DX003 (ip), vehicle: saline): 124 % of control
T/C (dose: 18.75 mg/kg/injection, schedule: Q01DX009 (ip), vehicle: saline): 95 % of control
T/C (dose: 19.0 mg/kg/injection, schedule: Q01DX001 (ip), vehicle: saline): 107 % of control
T/C (dose: 25.0 mg/kg/injection, schedule: Q01DX009 (ip), vehicle: saline): 103 % of control
T/C (dose: 25.0 mg/kg/injection, schedule: Q04DX003 (ip), vehicle: saline): 95 % of control and 118 % of control and 120 % of control
T/C (dose: 33.0 mg/kg/injection, schedule: Q04DX003 (ip), vehicle: saline): 122 % of control
T/C (dose: 38.0 mg/kg/injection, schedule: Q01DX001 (ip), vehicle: saline): 111 % of control
T/C (dose: 120.0 mg/kg/injection, schedule: Q04DX003 (ip), vehicle: saline): 150 % of control
T/C (dose: 150.0 mg/kg/injection, schedule: Q04DX003 (ip), vehicle: saline): 118 % of control
T/C (dose: 1.5 micrograms/kg/injection, schedule: Q01DX009 (ip), vehicle: saline): 95 % of control
T/C (dose: 3.1 micrograms/kg/injection, schedule: Q01DX009 (ip), vehicle: saline): 106 % of control
T/C (dose: 6.2 micrograms/kg/injection, schedule: Q01DX009 (ip), vehicle: saline): 95 % of control
T/C (dose: 12.5 micrograms/kg/injection, schedule: Q01DX009 (ip), vehicle: saline): 93 % of control
T/C (dose: 25.0 micrograms/kg/injection, schedule: Q01DX009 (ip), vehicle: saline): 103 % of control
T/C (dose: 50.0 micrograms/kg/injection, schedule: Q01DX009 (ip), vehicle: saline): 87 % of control
T/C (dose: 100.0 micrograms/kg/injection, schedule: Q01DX009 (ip), vehicle: saline): 103 % of control
T/C (dose: 200.0 micrograms/kg/injection, schedule: Q01DX009 (ip), vehicle: saline): 103 % of control

O=C(NCCCl)Nc1ccc2c(c1)Cc1ccccc1-2
T/C (dose: 100.0 mg/kg/injection, schedule: Q04DX003 (ip), vehicle: Klucel (hydroxypropylcellulose) (HPC)): 108 % of control
T/C (dose: 200.0 mg/kg/injection, schedule: Q04DX003 (ip), vehicle: Klucel (hydroxypropylcellulose) (HPC)): 93 % of control
T/C (dose: 400.0 mg/kg/injection, schedule: Q04DX003 (ip), vehicle: Klucel (hydroxypropylcellulose) (HPC)): 101 % of control

CSC(N)=Nc1cccc(C)c1C
T/C (dose: 50.0 mg/kg/injection, schedule: Q01DX009 (ip), vehicle: saline): 100 % of control
T/C (dose: 100.0 mg/kg/injection, schedule: Q01DX009 (ip), vehicle: saline): 101 % of control
T/C [1]: 97 % of control
T/C [2]: 97 % of control

COc1ccc(C2NC(=O)NC2=O)cc1OC (centres undefined)
T/C (dose: 25.0 mg/kg/injection, schedule: Q01DX009 (ip), vehicle: saline sonified): 98 % of control
T/C (dose: 50.0 mg/kg/injection, schedule: Q01DX001 (ip), vehicle: saline): 102 % of control
T/C (dose: 50.0 mg/kg/injection, schedule: Q01DX009 (ip), vehicle: saline sonified): 106 % of control
T/C (dose: 100.0 mg/kg/injection, schedule: Q01DX001 (ip), vehicle: saline): 105 % of control
T/C (dose: 100.0 mg/kg/injection, schedule: Q01DX009 (ip), vehicle: saline sonified): 101 % of control
T/C [1]: 95 % of control
T/C (dose: 200.0 mg/kg/injection, schedule: Q01DX001 (ip), vehicle: saline): 105 % of control
T/C [2]: 103 % of control
T/C (dose: 400.0 mg/kg/injection, schedule: Q01DX001 (ip), vehicle: saline): 105 % of control
T/C (dose: 400.0 mg/kg/injection, schedule: Q04DX003 (ip), vehicle: saline): 97 % of control
